One series has as its system EGFR. Briefly: cDNA PCR analysis of exon skipping / full-size transcript in EGFR. The class given is cell-based, Human. The note with it: gRNA on its own; PDMR lung adenocarcinoma cells. On the procedure: After CRISPR reactions, total RNA was prepared, and cDNA synthesized for PCR amplification of the target region from EGFR. PCR-amplified DNA was then analyzed by electrophoresis through a 1% agarose gel for 75 minutes at 80v. DNA was stained with SYBR Safe. Lanes 1 and 13: NEB 2 Log Ladder; Lane 2: Scrambled gRNA; Lane 3: EGFR 21-22 SureKill gRNA 11 alone; Lane 4: EGFR 21-22 SureKill gRNA 13 alone; Lane 5: EGFR 21-22 SureKill gRNA 16 alone; Lane 6: EGFR 21-22 SureKill gRNA 17 alone; Lane 7: EGFR 21-22 SureKill gRNA 19 alone; Lane 8: EGFR 21-22 SureKill gRNA 22 alone; Lane 9: EGFR 21-22 SureKill gRNA 23 alone; Lane 10: EGFR 21-22 SureKill gRNA 27 alone; Lane 11: EGFR 21-22 SureKill gRNA 28 alone; Lane 12: EGFR 21-22 SureKill gRNA 29 alone. On the left side of the image are markers indicating DNA size in bp.
After CRISPR reactions, total RNA was prepared, and cDNA synthesized for semi-quantitative PCR amplification of the target region from EGFR. PCR amplification was performed for 25 cycles. PCR-amplified DNA was then analyzed by electrophoresis through a 1% agarose gel for 75 minutes at 80v. DNA was stained with SYBR Safe. […]
(§1) Transfections were carried out using the Lonza Nuclefector 4d. […] RNPs were complexed at 250:50 pmol for 30 minutes prior to transfection, during which time cells were harvested and counted. […]

Another series concerns NRF2. Briefly: cDNA PCR analysis of exon skipping / full-size transcript in NFE2L2. The class given is cell-based, Human. The note with it: gRNA individually applied in the CRISPR reaction; NCI-H1703 clone 44-25 cells. On the procedure:
After CRISPR reactions, total RNA was prepared, and cDNA synthesized for PCR amplification of the target region from NRF2. PCR-amplified DNA was then analyzed by electrophoresis through a 1% agarose gel for 75 minutes at 80v. DNA was stained with SYBR Safe. Lanes 1 and 10: NEB 2 Log Ladder; Lane 2: Scrambled gRNA; Lane 3: NRF2 3-4 SureKill gRNA 3 alone; Lane 4: NRF2 3-4 SureKill gRNA 12 alone; Lane 5: NRF2 3-4 SureKill gRNA 14 alone; Lane 6: NRF2 3-4 SureKill gRNA 15 alone; Lane 7: NRF2 3-4 SureKill gRNA 21 alone; Lane 8: NRF2 3-4 SureKill gRNA 25 alone; Lane 9: NRF2 3-4 SureKill gRNA 26 alone. On the left side of the image are markers indicating DNA size in bp.
After CRISPR reactions, total RNA was prepared, and cDNA synthesized for PCR amplification of the target region from NRF2. PCR-amplified DNA was then analyzed by electrophoresis through a 1% agarose gel for 75 minutes at 80v. DNA was stained with SYBR Safe. Lane 1: NEB 2 Log Ladder; Lane 2: Scrambled gRNA; Lane 3: R34G gRNA alone; Lane 4: NRF2 3-4 SureKill gRNA 3+R34G gRNA; Lane 5: NRF2 3-4 SureKill gRNA+R34G gRNA; Lane 6: NRF2 3-4 SureKill gRNA 14+R34G gRNA. […]
as §1

In the case of “L858R gRNA: guide RNA TCAAGATCACAGATTTTGGG, SEQ ID NO:8, targets EGFR L858R mutation (listed as DNA, chemistry not given here)”, in the series with EGFR, the “exon skipping (cDNA analysis)” value is recorded as “induced some level of exon skipping”.
Regarding “R34G gRNA: guide RNA GATATAGATCTTGGAGTAAG, SEQ ID NO:1, targets NRF2 R34G mutation (listed as DNA, chemistry not given here)”, the “exon skipping (cDNA analysis)” value in the series on NRF2 is recorded as “induced some level of exon skipping”.
